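Growth conditions: 96-well plates. Treatment: test compound, 48 hours, 5 concentrations. Analysis: linear interpolation between bracketing concentrations; unreached endpoints set to highest concentration. The concentration for 50% growth inhibition is given as GI50.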 Activity calls are given as the source filed them. Cut-off read from the data, not from the text of the source: active = GI50 up to about 1.1 µM and inactive = higher.
Columns and labels:
Test in all cases: inhibition of tumour cell growth, NCI panel, 48 h
SF-268 = tested on: SF-268
CAKI-1 = tested on: CAKI-1
ACHN = tested on: ACHN
A549 = tested on: A549
BT-549 = tested on: BT-549
HOP-62 = tested on: HOP-62
OVCAR-3 = tested on: OVCAR-3
CCRF-CEM = tested on: CCRF-CEM
OVCAR-4 = tested on: OVCAR-4
EKVX = tested on: EKVX
M14 = tested on: M14
SNB-75 = tested on: SNB-75
786-0 = tested on: 786-0
UACC-62 = tested on: UACC-62
MDA-MB-231 = tested on: MDA-MB-231
UO-31 = tested on: UO-31
HCT-116 = tested on: HCT-116
IGROV-1 = tested on: IGROV-1
SW-620 = tested on: SW-620
NCI-H23 = tested on: NCI-H23
HCT-15 = tested on: HCT-15
HOP-92 = tested on: HOP-92
OVCAR-5 = tested on: OVCAR-5
MOLT-4 = tested on: MOLT-4
LOX IMVI = tested on: LOX IMVI
MDA-MB-435 = tested on: MDA-MB-435
K562 = tested on: K562
T47D = tested on: T47D
HL-60 = tested on: HL-60
RPMI-8226 = tested on: RPMI-8226
MDA-N = tested on: MDA-N
DU-145 = tested on: DU-145
NCI-H460 = tested on: NCI-H460
SN12C = tested on: SN12C
SK-MEL-2 = tested on: SK-MEL-2
NCI-H226 = tested on: NCI-H226
KM12 = tested on: KM12
SK-OV-3 = tested on: SK-OV-3
HCC 2998 = tested on: HCC 2998
COLO 205 = tested on: COLO 205
SF-539 = tested on: SF-539
TK-10 = tested on: TK-10
HT-29 = tested on: HT-29
A498 = tested on: A498
SK-MEL-28 = tested on: SK-MEL-28
SR = tested on: SR
NCI/ADR-RES = tested on: NCI/ADR-RES
PC-3 = tested on: PC-3
SNB-19 = tested on: SNB-19
U-251 = tested on: U-251
SK-MEL-5 = tested on: SK-MEL-5
RXF 393 = tested on: RXF 393
Malme-3M = tested on: Malme-3M
MCF7 = tested on: MCF7
UACC-257 = tested on: UACC-257
OVCAR-8 = tested on: OVCAR-8
SF-295 = tested on: SF-295
NCI-H522 = tested on: NCI-H522
Hs-578T = tested on: Hs-578T

COc1ccc2nc3c4c(nccc4c2c1)-c1ncccc1C3=O
GI50 (SF-268): 0.0826 µM (active) | GI50 (CAKI-1): 0.109 µM (active) | GI50 (ACHN): 0.0116 µM (active) | GI50 (A549): 0.113 µM (active) | GI50 (BT-549): 0.109 µM (active) | GI50 (HOP-62): 0.0193 µM (active) | GI50 (OVCAR-3): 0.005 µM (active) | GI50 (CCRF-CEM): 0.818 µM (active) | GI50 (OVCAR-4): 0.439 µM (active) | GI50 (EKVX): 0.132 µM (active) | GI50 (M14): 0.0118 µM (active) | GI50 (SNB-75): 0.0787 µM (active) | GI50 (786-0): 0.0246 µM (active) | GI50 (UACC-62): 0.048 µM (active) | GI50 (MDA-MB-231): 0.494 µM (active) | GI50 (UO-31): 0.135 µM (active) | GI50 (HCT-116): 0.0124 µM (active) | GI50 (IGROV-1): 0.0294 µM (active) | GI50 (SW-620): 0.0121 µM (active) | GI50 (NCI-H23): 0.0887 µM (active) | GI50 (HCT-15): 0.005 µM | GI50 (HOP-92): 0.092 µM (active) | GI50 (OVCAR-5): 0.971 µM (active) | GI50 (MOLT-4): 0.847 µM (active) | GI50 (LOX IMVI): 0.00982 µM (active) | GI50 (MDA-MB-435): 0.0427 µM (active) | GI50 (K562): 0.016 µM (active) | GI50 (T47D): 0.703 µM (active) | GI50 (HL-60): 0.0217 µM (active) | GI50 (RPMI-8226): 0.0652 µM (active) | GI50 (MDA-N): 0.0631 µM (active) | GI50 (DU-145): 0.00927 µM (active) | GI50 (NCI-H460): 0.0261 µM (active) | GI50 (SN12C): 0.0508 µM (active) | GI50 (SK-MEL-2): 0.376 µM (active) | GI50 (NCI-H226): 0.0622 µM (active) | GI50 (KM12): 0.0748 µM (active) | GI50 (SK-OV-3): 0.0586 µM (active) | GI50 (HCC 2998): 0.209 µM (active) | GI50 (COLO 205): 0.604 µM (active) | GI50 (SF-539): 0.0769 µM (active) | GI50 (TK-10): 0.18 µM (active) | GI50 (HT-29): 0.499 µM (active) | GI50 (A498): 0.0916 µM (active) | GI50 (SK-MEL-28): 0.109 µM (active) | GI50 (SR): 0.00542 µM (active) | GI50 (NCI/ADR-RES): 0.201 µM (active) | GI50 (PC-3): 0.0317 µM (active) | GI50 (SNB-19): 0.0656 µM (active) | GI50 (U-251): 0.0319 µM (active) | GI50 (SK-MEL-5): 0.0282 µM (active) | GI50 (RXF 393): 0.119 µM (active) | GI50 (Malme-3M): 0.0791 µM (active) | GI50 (MCF7): 0.021 µM (active) | GI50 (UACC-257): 0.0834 µM (active) | GI50 (OVCAR-8): 0.034 µM (active) | GI50 (SF-295): 0.08 µM (active)

COC(=O)N/N=C(\C)C(CN1CCOCC1)C(c1ccccc1)c1cc2ccccc2oc1=O (stereo not given)
GI50 (SF-268): > 100 µM (inactive) | GI50 (CAKI-1): > 100 µM (inactive) | GI50 (ACHN): > 100 µM (inactive) | GI50 (A549): > 100 µM (inactive) | GI50 (BT-549): 68.7 µM (inactive) | GI50 (HOP-62): > 100 µM (inactive) | GI50 (OVCAR-3): > 100 µM (inactive) | GI50 (CCRF-CEM): 44.6 µM (inactive) | GI50 (NCI-H522): > 100 µM (inactive) | GI50 (OVCAR-4): 74.3 µM (inactive) | GI50 (EKVX): > 100 µM (inactive) | GI50 (M14): > 100 µM (inactive) | GI50 (SNB-75): > 100 µM (inactive) | GI50 (786-0): > 100 µM (inactive) | GI50 (UACC-62): > 100 µM (inactive) | GI50 (MDA-MB-231): > 100 µM (inactive) | GI50 (UO-31): > 100 µM (inactive) | GI50 (HCT-116): > 100 µM (inactive) | GI50 (IGROV-1): > 100 µM (inactive) | GI50 (SW-620): > 100 µM (inactive) | GI50 (NCI-H23): > 100 µM (inactive) | GI50 (HCT-15): > 100 µM | GI50 (HOP-92): 30.5 µM (inactive) | GI50 (OVCAR-5): > 100 µM (inactive) | GI50 (MOLT-4): 44.2 µM (inactive) | GI50 (LOX IMVI): > 100 µM (inactive) | GI50 (MDA-MB-435): > 100 µM (inactive) | GI50 (K562): 70.5 µM (inactive) | GI50 (T47D): > 100 µM (inactive) | GI50 (HL-60): 36.3 µM (inactive) | GI50 (RPMI-8226): 25 µM (inactive) | GI50 (DU-145): > 100 µM (inactive) | GI50 (NCI-H460): > 100 µM (inactive) | GI50 (SN12C): > 100 µM (inactive) | GI50 (SK-MEL-2): > 100 µM (inactive) | GI50 (NCI-H226): > 100 µM (inactive) | GI50 (KM12): > 100 µM (inactive) | GI50 (SK-OV-3): > 100 µM (inactive) | GI50 (HCC 2998): > 100 µM (inactive) | GI50 (COLO 205): 52.6 µM (inactive) | GI50 (SF-539): > 100 µM (inactive) | GI50 (TK-10): > 100 µM (inactive) | GI50 (HT-29): > 100 µM (inactive) | GI50 (A498): > 100 µM (inactive) | GI50 (SK-MEL-28): > 100 µM (inactive) | GI50 (SR): 23.9 µM (inactive) | GI50 (Hs-578T): > 100 µM (inactive) | GI50 (NCI/ADR-RES): 55.8 µM (inactive) | GI50 (PC-3): > 100 µM (inactive) | GI50 (SNB-19): > 100 µM (inactive) | GI50 (U-251): > 100 µM (inactive) | GI50 (SK-MEL-5): > 100 µM (inactive) | GI50 (RXF 393): 72.1 µM (inactive) | GI50 (Malme-3M): 62.5 µM (inactive) | GI50 (MCF7): > 100 µM (inactive) | GI50 (UACC-257): 82.4 µM (inactive) | GI50 (OVCAR-8): > 100 µM (inactive) | GI50 (SF-295): > 100 µM (inactive)
